Test results reported in ChEMBL document CHEMBL3580564, “Semisynthetic Studies on and Biological Evaluation of N-Methyllaurotetanine Analogues as Ligands for 5-HT Receptors” (J Nat Prod, 2015).

Tests used:
Homo sapiens [1] = species: Homo sapiens; assay: Selectivity index, ratio of Ki for human recombinant 5-HT1A receptor to Ki for human recombinant 5-HT7 receptor
Homo sapiens [2] = species: Homo sapiens; assay: Selectivity index, ratio of Ki for human recombinant 5-HT2A receptor to Ki for human recombinant 5-HT7 receptor
[3] = biological target: 5-hydroxytryptamine receptor 7 (Homo sapiens, UniProt P34969); assay: Displacement of [3H]LSD from human recombinant 5-HT7 receptor expressed in HEK cell membranes by radioligand binding assay; parameters: species or system HEK293
[4] = biological target: T1, 5-hydroxytryptamine receptor 1A (Homo sapiens, UniProt P08908); assay: Displacement of [3H]Way100635 from human recombinant 5-HT1A receptor expressed in CHO cell membranes by radioligand binding assay
T1 sequence (P08908 whole entry): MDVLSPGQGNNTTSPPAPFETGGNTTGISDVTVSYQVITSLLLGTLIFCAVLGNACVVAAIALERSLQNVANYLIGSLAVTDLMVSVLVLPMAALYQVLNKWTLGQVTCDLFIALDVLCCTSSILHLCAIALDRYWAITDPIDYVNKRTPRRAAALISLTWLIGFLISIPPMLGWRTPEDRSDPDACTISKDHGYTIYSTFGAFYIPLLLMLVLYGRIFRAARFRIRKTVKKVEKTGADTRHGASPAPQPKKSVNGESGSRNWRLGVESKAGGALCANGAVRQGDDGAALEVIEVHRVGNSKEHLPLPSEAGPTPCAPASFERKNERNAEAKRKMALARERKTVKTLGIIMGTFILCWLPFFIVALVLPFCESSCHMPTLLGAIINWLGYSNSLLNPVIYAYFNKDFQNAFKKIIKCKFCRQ

[5] = biological target: 5-hydroxytryptamine receptor 2A (Homo sapiens, UniProt P28223); assay: Displacement of [3H]ketanserin from human recombinant 5-HT2A receptor expressed in HEKT cell membranes by radioligand binding assay; type: cell-based
[6] = biological target: T2, 5-hydroxytryptamine receptor 1A (Homo sapiens) (UniProt P08908); assay: Potency index, ratio of Ki for N-Methyllaurotetanine to Ki for test compound against human recombinant 5-HT1A receptor expressed in CHO cell membranes by radioligand binding assay
T2 sequence (whole entry): T1 sequence (P08908 whole entry)

Sequence of 5-hydroxytryptamine receptor 7 (P34969 whole entry): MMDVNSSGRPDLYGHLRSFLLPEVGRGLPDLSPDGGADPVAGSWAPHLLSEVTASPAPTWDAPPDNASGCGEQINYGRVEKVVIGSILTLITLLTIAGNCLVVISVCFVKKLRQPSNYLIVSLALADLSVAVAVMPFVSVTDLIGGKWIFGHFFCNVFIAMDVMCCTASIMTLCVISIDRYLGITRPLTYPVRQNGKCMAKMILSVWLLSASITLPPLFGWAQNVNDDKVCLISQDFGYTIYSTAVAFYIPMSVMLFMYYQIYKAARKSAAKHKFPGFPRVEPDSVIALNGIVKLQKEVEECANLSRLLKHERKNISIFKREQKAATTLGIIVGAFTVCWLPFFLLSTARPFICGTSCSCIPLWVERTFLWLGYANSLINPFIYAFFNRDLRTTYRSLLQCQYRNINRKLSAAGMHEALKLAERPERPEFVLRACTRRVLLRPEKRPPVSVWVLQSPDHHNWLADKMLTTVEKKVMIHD
Sequence of 5-hydroxytryptamine receptor 2A (P28223 whole entry): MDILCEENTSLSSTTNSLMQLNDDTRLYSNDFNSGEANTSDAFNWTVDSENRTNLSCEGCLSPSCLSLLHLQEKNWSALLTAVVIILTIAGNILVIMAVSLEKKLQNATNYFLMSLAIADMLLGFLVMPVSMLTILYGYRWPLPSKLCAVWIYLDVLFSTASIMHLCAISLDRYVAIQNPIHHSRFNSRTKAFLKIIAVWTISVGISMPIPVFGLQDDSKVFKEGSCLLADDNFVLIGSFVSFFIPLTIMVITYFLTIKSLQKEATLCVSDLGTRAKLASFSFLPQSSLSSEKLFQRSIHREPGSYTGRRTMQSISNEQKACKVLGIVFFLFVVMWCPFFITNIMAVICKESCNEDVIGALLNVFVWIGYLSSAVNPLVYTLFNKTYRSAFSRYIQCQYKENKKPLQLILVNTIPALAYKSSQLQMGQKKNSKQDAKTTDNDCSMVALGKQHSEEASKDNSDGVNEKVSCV

Row | Compound | Ratio Ki (Homo sapiens [1]) | Ratio Ki (Homo sapiens [2]) | Ki [3] [nM] | Ki [4] [nM] | Ki [5] [nM] | Ratio Ki [6]
1 | CCOc1cc2c(cc1OC)-c1c(OC)c(OC)cc3c1[C@H](C2)N(C)CC3 | 7 | 12 | 69 | 506 | 818 | –
2 | COc1cc2c(cc1OC)-c1c(OC)c(OC)cc3c1[C@H](C2)N(C)CC3 [GLAUCINE] | 4 | 22 | 43 | 171 | 966 | –
3 | COc1cc2c(cc1OCC1CC1)C[C@H]1c3c(cc(OC)c(OC)c3-2)CCN1C | 10 | – | 22 | 224 | 582 | –
4 | COc1cc2c(cc1OCc1ccc(Br)cc1)C[C@H]1c3c(cc(OC)c(OC)c3-2)CCN1C | 2 | 8 | 54 | 102 | 418 | 3
5 | CCCCCCOc1cc2c(cc1OC)-c1c(OC)c(OC)cc3c1[C@H](C2)N(C)CC3 | 5 | 10 | 58 | 273 | 570 | –
6 | CCC(C)Oc1cc2c(cc1OC)-c1c(OC)c(OC)cc3c1[C@H](C2)N(C)CC3 (stereo partly specified) | 7 | 7 | 34 | 244 | 377 | < 3
7 | CCCCOc1cc2c(cc1OC)-c1c(OC)c(OC)cc3c1[C@H](C2)N(C)CC3 | 10 | 18 | 15 | 153 | 268 | –
8 | COc1cc2c(cc1OCCF)C[C@H]1c3c(cc(OC)c(OC)c3-2)CCN1C | 16 | 22 | 52 | 845 | 1160 | –
